Experiment [1] has as its system RPMI 8226 (B lymphocyte cell line, multiple myeloma). As to the kind of experiment: 48 hr CTG viability assay, RPMI 8226. The format is cell-based. The conditions noted are these: Homo sapiens, RPMI-8226; 48 hr CTG; read-out: RPMI-8226 IC50. An outline of the steps:
(§1)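 Growth inhibition by compound over 48 h; IC50 (nM) derived from duplicate CellTiter-Glo luminescence readings across 0.0015–10 uM.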

In experiment [2] the target is T1, β5 subunit of the human constitutive proteasome (CPS) (Homo sapiens, UniProt P28074).
T1 construct: purchased Boston Biochem E-360
As to the kind of experiment: β5 inhibition assay, human constitutive proteasome (Suc-LLVY-AMC). The experiment is classed as biochemical. The note with it: IC50 class, Suc-LLVY-AMC substrate. The protocol:
The enzymatic activity of the β5 subunit of the human constitutive proteasome (CPS) is analyzed. In another assay, which differs from the assay of the human constitutive proteasome only in using the human immunoproteasome (IPS) the enzymatic activity of the β5 subunit of the human immunoproteasome (IPS) is analyzed. […] Inhibition is indicated as IC50 [nM] (“-”=not measured).

Experiment [3] concerns MM1 S (B lymphoblast cell line). The experiment is described as follows: 48 hr CTG viability assay, MM1S. The conditions noted are these: Homo sapiens, 48 hr CTG, read-out: MM1S IC50. The experiment is classed as cell-based. Put shortly: as §1
The test system of experiment [4] is MDA-MB-468 (breast carcinoma). The experiment is described as follows: 48 hr CTG viability assay, MDA-MB-468. The experiment is classed as cell-based. The conditions noted are these: Homo sapiens. As for the experimental part: (§2) A viability assay was conducted for 48 hours to evaluate the inhibition of cancer cell growth by proteasome inhibitors. Briefly, the candidate cell line was plated with a 96-well plate following density of cells, respectively. 6×10^3 Cells/well for A2780 (human ovarian cancer cell line) and MDA-MB-468 (breast carcinoma), 8×10^3 Cells/well for Hs746T (human gastric carcinoma cell line), 1.1×10^4 Cells/well for MM1 S and RPMI 8226 (multiple myeloma). After 24 hours, the cells were treated with various concentrations of the compound (ranging from 0.0015 uM to 10 uM). […] After 48 hours of incubation at 37° C., 5% CO2 incubator, cells were analyzed for viability using the CellTiter-Glo Luminescent Cell Viability assay (Promega, Cat #G7570). All viability assays were performed in duplicate and Luminescence was read using an Envision (Perkin Elmer, USA). Data were analyzed using XLfit software. […] (human gastric carcinoma cell line), MM1 S (B lymphoblast cell line), and RPMI 8226 (B lymphocyte cell line, multiple myeloma). Inhibition is indicated as IC50 [nM] (“-”=not measured).

Experiment [5] relates to A2780 (human ovarian cancer cell line). The experiment is described as follows: 48 hr CTG viability assay, A2780. The experiment is classed as cell-based. As for the experimental part:
as §2

Experiment [6] concerns Hs 746T (human gastric carcinoma cell line). As to the kind of experiment: 48 hr CTG viability assay, Hs 746T. The format is cell-based. The note with it: Hs746T, 48 hr CTG, read-out: Hs 746T IC50. An outline of the steps: as §1
For experiment [7], the target named is T2, β5 subunit of the human immunoproteasome (IPS) (Homo sapiens, UniProt P28062).
T2 construct: purchased Boston Biochem E-370
As to the kind of experiment: β5 inhibition assay, human immunoproteasome (Suc-LLVY-AMC). The format is biochemical. The note with it: IC50 class, Suc-LLVY-AMC substrate. An outline of the steps: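 β5 activity is read as liberated AMC fluorescence (355/460 nm) after 4 h dark reaction at RT with 22.6 μM Suc-LLVY-AMC, stopped by 1 μM bortezomib. Beforehand, 1 nM human IPS and compound sat 10 min at RT in HEPES pH 7.5 buffer containing NaCl, 0.02% SDS and DTT.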

Experiment [8] deals with A549 (human lung carcinoma cell line). As to the kind of experiment: Glo assay of A549 cells (Table 3; ProteasomeGlo plating scheme). The experiment is classed as cell-based. The note with it: Homo sapiens; A549 cells; read-out: PGLo A549. Put shortly:
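After acoustic compound transfer, plates incubate 105 min (37° C., 5% CO2). Proteasome-Glo reagent containing Suc-LLVY-Glo substrate is added, plates are shaken, then luminescence is measured after 10-15 min to derive IC50 [nM]. Staurosporine and DMSO serve as controls.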

These results are taken from patent publication US20240415819A1, “MACROCYCLIC COMPOUNDS AS PROTEASOME SUBUNIT BETA TYPE-5 INHIBITORS” (Lead Discovery Center GmbH, priority 2021, published 2024).

Take `Cc1ccc2cc1CNC(=O)[C@H](CCc1ccccc1)NC(=O)[C@@H](NC(=O)[C@@H](C)c1ccc(N)cc1)CC(=O)N1CCCC(CCO2)C1` (stereo partly drawn) [Compound 634, (2S)-2-(4-aminophenyl)-N-((9S,12S)-5^4-methyl-8,11,14-trioxo-9-phenethyl-4-oxa-7,10-diaza-1(3,1)-piperidina-5(1,3)-benzenacyclotetradecaphane-12-yl)propanamide]: the IC50 in experiment [1], in experiment [2], in experiment [3], in experiment [4], in experiment [5] and in experiment [6] was below 100 nM in each case. In addition, the IC50 in experiment [7] and in experiment [8] was below 100 nM each time.

With `Cc1ccc2cc1CNC(=O)[C@H](CCc1ccccc1)NC(=O)[C@@H](NC(=O)C1(CO)CCOCC1)CC(=O)N1CCCC(CCO2)C1` (stereo partly drawn) [Compound 671, 4-(hydroxymethyl)-N-((9S,12S)-5^4-methyl-8,11,14-trioxo-9-phenethyl-4-oxa-7,10-diaza-1(3,1)-piperidina-5(1,3)-benzenacyclotetradecaphane-12-yl)tetrahydro-2H-pyran-4-carboxamide], the IC50 in experiment [1], in experiment [2], in experiment [3], in experiment [4], in experiment [6] and in experiment [7] was below 100 nM in each case. In experiment [8], the IC50 was below 100 nM.

Regarding `Cc1ccc2cc1CNC(=O)[C@H](CCc1cccnc1)NC(=O)[C@@H](NC(=O)C(C)(C)CO)CC(=O)N1CCCC(CCO2)C1` (stereo partly drawn) [Compound 683, 3-hydroxy-2,2-dimethyl-N-((9S,12S)-5^4-methyl-8,11,14-trioxo-9-(2-(pyridin-3-yl)ethyl)-4-oxa-7,10-diaza-1(3,1)-piperidina-5(1,3)-benzenacyclotetradecaphane-12-yl)propanamide], the IC50 in experiment [1], in experiment [2], in experiment [3], in experiment [4], in experiment [6] and in experiment [7] was below 100 nM throughout. Further, the IC50 in experiment [8] was below 100 nM.

`Cc1ccc2cc1CNC(=O)[C@H](CCc1ccccc1)NC(=O)[C@@H](NC(=O)N1CCc3cc(N)ccc31)CC(=O)N1CCCC(CCO2)C1` (stereo partly drawn) [Compound 704, 5-amino-N-((9S,12S)-5^4-methyl-8,11,14-trioxo-9-phenethyl-4-oxa-7,10-diaza-1(3,1)-piperidina-5(1,3)-benzenacyclotetradecaphane-12-yl)indoline-1-carboxamide]: the IC50 in experiment [1], in experiment [2], in experiment [3], in experiment [4], in experiment [6] and in experiment [7] was below 100 nM each time. Further, the IC50 in experiment [8] was below 100 nM.

In the case of `Cc1ccc2cc1CNC(=O)[C@H](CCc1ccccc1)NC(=O)[C@@H](NC(=O)C1(CO)CCNCC1)CC(=O)N1CCCC(CCO2)C1` (stereo partly drawn) [Compound 730, 4-(hydroxymethyl)-N-((9S,12S)-5^4-methyl-8,11,14-trioxo-9-phenethyl-4-oxa-7,10-diaza-1(3,1)-piperidina-5(1,3)-benzenacyclotetradecaphane-12-yl)piperidine-4-carboxamide], the IC50 in experiment [1] was 500 to 1000 nM; in experiment [2], below 100 nM; in experiment [3] it was 100 to 500 nM; in experiment [4] it was 1000 to 5000 nM; in experiment [6] it was 500 to 1000 nM; in experiment [7] it was below 100 nM. Moreover, the IC50 in experiment [8] was 100 to 500 nM.

Turning to `Cc1ccc2cc1CNC(=O)[C@H](CCc1ccccc1)NC(=O)[C@@H](NC(=O)C(C)(C)CO)CCC(=O)NCCCO2` [Compound 732, 3-hydroxy-2,2-dimethyl-N-((10S,13S)-1^4-methyl-7,11,14-trioxo-13-phenethyl-2-oxa-6,12,15-triaza-1(1,3)-benzenacyclohexadecaphane-10-yl)propanamide], the IC50 is 500 to 1000 nM in experiment [1]; below 100 nM in experiment [2]; 1000 to 5000 nM in experiment [3]; 1000 to 5000 nM in experiment [4]; above 5000 nM in experiment [6]; below 100 nM in experiment [7]. Further, the IC50 in experiment [8] lay within 1000 to 5000 nM.

In the case of `Cc1ccc2cc1CNC(=O)[C@H](CCc1ccccc1)NC(=O)[C@@H](NC(=O)C(C)(C)CO)CC(=O)NCCCCO2` [Compound 735, 3-hydroxy-2,2-dimethyl-N-((10S,13S)-1^4-methyl-8,11,14-trioxo-13-phenethyl-2-oxa-7,12,15-triaza-1(1,3)-benzenacyclohexadecaphane-10-yl)propanamide], the IC50 was 1000 to 5000 nM in experiment [1]; 100 to 500 nM in experiment [2]; 1000 to 5000 nM in experiment [3]; above 5000 nM in experiment [4]; above 5000 nM in experiment [6]; below 100 nM in experiment [7]. For the same compound, in experiment [8], the IC50 is above 5000 nM.

Turning to `Cc1ccc2cc1CNC(=O)[C@H](CCc1ccccc1)NC(=O)[C@@H](NC(=O)[C@H](C)c1ccc(N)cc1)CC(=O)N1CCCC(CCO2)C1` (stereo partly drawn) [Compound 738, (2R)-2-(4-aminophenyl)-N-((9S,12S)-5^4-methyl-8,11,14-trioxo-9-phenethyl-4-oxa-7,10-diaza-1(3,1)-piperidina-5(1,3)-benzenacyclotetradecaphane-12-yl)propanamide], the IC50 in experiment [1], in experiment [2], in experiment [3], in experiment [4], in experiment [5] and in experiment [6] was below 100 nM in each case. Further, the IC50 in experiment [7] and in experiment [8] was below 100 nM each time.
